Patent publication US6479534B1, “Indoline derivatives and method of treating obesity” (priority 2000, dated 2002)
Structures can show the parent of a compound that is named as a salt. Where two headings read alike, the source gives them in different places.

Assays:
[1] = molecular target: T1, h5-HT2A receptors (Homo sapiens, UniProt P28223); assay: Functional activity, FLIPR calcium assay, CHO cells expressing h5-HT2A; format: cell-based; settings: for h5-HT2A Relative Efficacy: maximum fluorescent signal relative to 10 μM 5-HT (defined as 100%)
T1 construct: expressed in transfected cells; host or cells: CHO cells
T1 sequence (P28223 whole entry): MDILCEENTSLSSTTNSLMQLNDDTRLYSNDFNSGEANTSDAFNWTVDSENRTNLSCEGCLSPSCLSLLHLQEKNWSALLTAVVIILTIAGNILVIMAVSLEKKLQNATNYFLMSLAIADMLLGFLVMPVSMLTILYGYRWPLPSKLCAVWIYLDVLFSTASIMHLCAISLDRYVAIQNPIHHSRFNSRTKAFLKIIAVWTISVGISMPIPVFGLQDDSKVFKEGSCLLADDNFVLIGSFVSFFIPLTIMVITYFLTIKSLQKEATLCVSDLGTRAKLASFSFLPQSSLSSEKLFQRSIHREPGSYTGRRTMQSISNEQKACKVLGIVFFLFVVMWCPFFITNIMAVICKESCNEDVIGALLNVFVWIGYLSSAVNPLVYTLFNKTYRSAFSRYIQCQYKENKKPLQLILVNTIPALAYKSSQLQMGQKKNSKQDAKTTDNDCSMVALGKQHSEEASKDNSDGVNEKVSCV
Procedure: (§1) The functional activity of compounds of formula (I) was assayed using a Fluorimetric Imaging Plate reader (FLIPR):
(§2) CHO cells expressing either the h5-HT2C or h5-HT2A receptors were counted and plated into standard 96 well microtitre plates before the day of testing to give a confluent monolayer. The following day the cells were dye-loaded with the calcium sensitive dye Fluo 3-AM by incubation with serum free culture maintenance media containing pluronic acid and Fluo 3-AM dissolved in DMSO at 37° C. in a CO2 incubator at 95% humidity for approximately 90 minutes. Unincorporated dye was removed by washing with Hanks balanced salt solution containing 20 mM HEPES and 2.5 mM probenecid (the assay buffer) using an automated cell washer to leave a total volume of 100 μl/well.
(§3) The drug (dissolved in 50 μL of assay buffer) was added at a rate of 70 μL/sec to each well of the FLIPR 96 well plate during fluorescence measurements. The measurements are taken at 1 sec intervals and the maximum fluorescent signal was measured (approx 10-15 secs after drug addition) and compared with the response produced by 10 μM 5-HT (defined as 100%) to which it is expressed as a percentage response (relative efficacy).Dose response curves were constructed using Graphpad Prism (Graph Software Inc.).

[2] = molecular target: T2, human 5-HT2B receptors (Homo sapiens, UniProt P41595); assay: Radioligand binding to 5-HT2B receptor ([3H]-5-HT, CHO cell line)
T2 construct: expressed in transfected cells; host or cells: CHO cell line
T2 sequence (P41595 whole entry): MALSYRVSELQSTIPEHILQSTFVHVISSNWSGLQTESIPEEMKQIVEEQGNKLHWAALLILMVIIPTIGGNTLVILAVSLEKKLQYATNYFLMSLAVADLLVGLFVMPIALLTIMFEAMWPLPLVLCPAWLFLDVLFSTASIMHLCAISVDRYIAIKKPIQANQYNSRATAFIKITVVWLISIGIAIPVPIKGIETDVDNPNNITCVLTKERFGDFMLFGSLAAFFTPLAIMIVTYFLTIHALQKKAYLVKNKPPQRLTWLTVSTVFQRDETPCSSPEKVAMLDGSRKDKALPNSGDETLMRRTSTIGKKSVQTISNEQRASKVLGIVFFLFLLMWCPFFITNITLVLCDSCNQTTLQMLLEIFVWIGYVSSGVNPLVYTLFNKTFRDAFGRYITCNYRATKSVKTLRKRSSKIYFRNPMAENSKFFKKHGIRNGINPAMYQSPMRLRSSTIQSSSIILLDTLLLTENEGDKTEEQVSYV
Procedure: (§4) 1. Binding to Serotonin Receptors
(§5) The binding of compounds of formula (I) to serotonin receptors was determined in vitro by standard methods. The preparations were investigated in accordance with the assays given hereinafter.
Method (b): For the binding to the 5-HT2B receptor the 5-HT2B receptors were radiolabelled with [^3H]-5-HT. The affinity of the compounds for human 5-HT2B receptors in a CHO cell line was determined according to the procedure of K. Schmuck, C. Ullmer, P. Engels and H. Lubbert, FEBS Lett., 1994, 342, 85-90.

[3] = molecular target: T3, 5-HT2A receptor (Homo sapiens, UniProt P28223); assay: Radioligand binding to 5-HT2A receptor ([125I]-DOI, CHO cell line); settings: read-out: Ki (2A)
T3 construct: expressed in transfected cells; host or cells: CHO cell line
T3 sequence (P28223 whole entry): as the sequence (P28223 whole entry) above
Procedure: as §4, §5
Method (c): For the binding to the 5-HT2A receptor the 5-HT2A receptors were radiolabelled with [^125I]-DOI. The affinity of the compounds for 5-HT2A receptors in a CHO cell line was determined according to the procedure of D. J. McKenna and S. J. Peroutka, J. Neurosci., 1989, 9/10, 3482-90.

[4] = molecular target: T4, 5-HT2C receptor (Homo sapiens, UniProt P28335); assay: Radioligand binding to 5-HT2C receptor ([3H]-5-HT, CHO cell line); settings: read-out: Ki (2C)
T4 construct: expressed in transfected cells; host or cells: CHO cell line
T4 sequence (P28335 33-458): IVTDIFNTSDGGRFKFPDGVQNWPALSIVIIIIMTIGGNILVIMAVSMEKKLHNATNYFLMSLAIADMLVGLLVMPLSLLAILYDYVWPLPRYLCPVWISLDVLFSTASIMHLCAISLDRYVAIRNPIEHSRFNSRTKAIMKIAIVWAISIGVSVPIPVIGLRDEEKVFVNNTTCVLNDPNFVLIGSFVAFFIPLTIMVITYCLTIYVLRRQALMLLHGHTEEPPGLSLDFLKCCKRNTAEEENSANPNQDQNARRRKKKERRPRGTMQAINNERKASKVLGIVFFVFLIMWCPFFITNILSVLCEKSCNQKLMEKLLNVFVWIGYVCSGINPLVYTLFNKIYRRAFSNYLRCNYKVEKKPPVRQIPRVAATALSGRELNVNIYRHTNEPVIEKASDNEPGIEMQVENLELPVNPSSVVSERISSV
Procedure: as §4, §5
Method (a): For the binding to the 5-HT2C receptor the 5-HT2C receptors were radiolabelled with [^3H]-5-HT. The affinity of the compounds for 5-HT2C receptors in a CHO cell line was determined according to the procedure of D. Hoyer, G. Engel and H. O. Kalkman, European J. Pharmacol., 1985, 118, 13-23.

[5] = molecular target: T5, h5-HT2C receptors (Homo sapiens, UniProt P28335); assay: Functional activity, FLIPR calcium assay, CHO cells expressing h5-HT2C; format: cell-based; settings: for h5-HT2C Relative Efficacy: maximum fluorescent signal relative to 10 μM 5-HT (defined as 100%)
T5 construct: expressed in transfected cells; host or cells: CHO cells
T5 sequence (P28335 33-458): T4 sequence (P28335 33-458)
Procedure: as §1, §2, §3

[6] = [3H]-5-HT, human receptor, CHO cell line, read-out: Ki (2B)
[7] = FLIPR, Fluo 3-AM, CHO cells, read-out: h5-HT2C EC50

For `COc1c(F)ccc2c1C1CCCC1N2CC(C)N` (mixture of isomers) [Example 20, (2′S)-[1-[4-(7-Fluoro-1,2,3,3a,4,8b-hexahydro-8-methoxycyclopent[b]indolyl)]-2-propylamine fumarate], the EC50 ([1]; FLIPR, Fluo 3-AM, CHO cells) was 5490 nM, the “h5-HT2A Relative Efficacy” value [1] was 17% and the Ki [2] was 367 nM. It also gave a Ki [3] of 481 nM, a Ki [4] of 318 nM and an EC50 [5] of 464 nM. For the same compound, the “h5-HT2C Relative Efficacy” value [5] was 62%.
For `NCCN1c2ccccc2[C@H]2CCC[C@H]21.O=C(O)/C=C/C(=O)O` (racemic), the melting point was 172 °C (dec.).
For `C[C@H](N)CN1c2cc(Cl)c(F)cc2C2CCCC21` (single isomer, unassigned; isomer i) [Example 10, (2′S)-1-[4-(6-Chloro-7-fluoro-1,2,3,3a,4,8b-hexahydrocyclopent[b]indolyl)]-2-propylamine isomer I fumarate], the “h5-HT2A Relative Efficacy” value [1] was 20%, the Ki [2, 6] was 109 nM and the Ki [3] was 983 nM. The Ki [4] was 164 nM and the EC50 [5, 7] was 737 nM.
In the case of `COc1cc2c(cc1F)C1CCCC1N2C[C@H](C)N` (single isomer, unassigned; isomer i) [Example 19, (2′S)-1-[4-(7-Fluoro-1,2,3,3a,4,8b-hexahydro-6-methoxycyclopent[b]indolyl)]-2-propylamine isomer I 0.7 fumarate], the “h5-HT2A Relative Efficacy” value [1] is reported as 0%, the Ki [2] is reported as 513 nM and the Ki [3] is reported as 1160 nM. For the same compound, the Ki [4] was 88 nM, the EC50 [5] was 391 nM and the “h5-HT2C Relative Efficacy” value [5] was 84%.
With `C[C@H](N)CN1c2cc(Cl)ccc2[C@@H]2CCC[C@@H]21` [Example 2, (2′S, 3aS, 8b5)-[1-[4-(6-Chloro-1,2,3,3a,4,8b-hexahydrocyclopent[b]indolyl)]-2-propylamine hydrochloride] the “h5-HT2A Relative Efficacy” value [1] was 7%, the Ki [2, 6] was 302 nM and the Ki [3] was 726 nM. It also gave a Ki [4] of 133 nM and an EC50 [5, 7] of 585 nM.
